From patent publication US8455491B2, “6-cycloamino-3-(pyridazin-4-yl)imidazo[1,2-b]pyridazine and derivatives and pharmaceutical compositions comprising the same” (Sanofi, priority 2007, dated 2013) come the findings set out here.

One may read the pIC50 as the IC50 on a negative log10 scale, so that one unit is a factor of ten. Lower therefore signals a high IC50. The melting point is the temperature, or range, at which the solid turns liquid.

Series [1] concerns the target T1, casein kinase 1 epsilon (CK1 epsilon) (Homo sapiens, UniProt P49674).
T1 construct: Invitrogen Corporation (named as alternative)
Put plainly: Filter-plate assay of ATP-33P, inhibition of casein phosphorylation by CK1 epsilon. The class given is biochemical. Conditions: casein substrate, ATP 10 μM, 2 hours at ambient temperature. Here is the method:
The capacity of the compounds of the invention to inhibit the phosphorylation of casein by casein kinase 1 epsilon and delta may be evaluated according to the procedure described in US 2005/0131012.
Filter-Plate Assay of ATP-^33P for the Screening of CK1 Epsilon Inhibitors:
The effect of the compounds on inhibition of the phosphorylation of casein by the enzyme casein kinase 1 epsilon (CK1 epsilon) is measured, using a casein assay with filtration of ATP-^33P in vitro.
Casein kinase 1 epsilon (0.58 mg/ml) is obtained via fermentation and purification processes performed according to methods that are well known to those skilled in the art, or may also be obtained from Invitrogen Corporation™ (human CK1 epsilon).
The compounds are tested at five different concentrations so as to generate IC50 values, i.e. the concentration at which a compound is capable of inhibiting the enzymatic activity by 50%, or alternatively the percentage of inhibition at a concentration of 10 micromolar.
“U”-bottomed Falcon plates are prepared by placing 5 μL of solutions of the compounds according to the invention at concentrations of 10, 1, 0.1, 0.01 or 0.001 μM in various wells. The solutions of the compounds according to the invention at these various concentrations are prepared by diluting in a test buffer (50 mM Tris, pH 7.5, […], 2 mM DTT and 1 mM EGTA) a stock solution in DMSO at a concentration of 10 mM. Next, 5 μL of dephosphorylated casein are added to a final concentration of 0.2 μg/μL, 20 μl of CK1 epsilon to a final concentration of 3 ng/μl, and 20 μl of ATP-^33P to a final concentration of 0.02 μCi/μl mixed with cold ATP (10 μM final—approximately 2×10^6 CPM per well). The final total test volume per well is equal to 50 μl.
The “U”-bottomed Falcon® test plate mentioned above is vortexed, and then incubated at ambient temperature for 2 hours. After 2 hours, the reaction is stopped by adding an ice-cold solution of 65 μl of ATP (2 mM) prepared in test buffer.
100 μl of the reaction mixture are then transferred from the “U”-bottomed Falcon® plate into Millipore® MAPH filter plates, preimpregnated with 25 μl of ice-cold 100% TCA. […]
The plates are left to dry overnight at ambient temperature. […] The radiation emitted by each well is then measured for 2 minutes in a Packard® Topcount NXT scintillation counter, in which the values of CPM/well are measured.
The percentage inhibition of the capacity of the enzyme to phosphorylate the substrate (casein) is determined for each concentration of compound tested. These inhibition data expressed as percentages are used to calculate the IC50 value for each compound compared with the controls.
The kinetic studies determined the KM value for ATP as being 21 μM in this test system.

For series [2], the system named is Mper1-luc Rat-1 (P2C4) fibroblasts. Put plainly: Circadian cell assay (mPer1-luciferase reporter, period prolongation). Particulars: effective concentration that induced a 1-hour prolongation of the circadian period, interpolated from hyperbolic curve. The format is cell-based. Here is the method: Experimental Protocols for Circadian Cell Assay
Mper1-luc Rat-1 (P2C4) fibroblast cultures were prepared by dividing the cultures every 3-4 days (approximately 10-20% of confluence) on 150 cm^2 degassed polystyrene tissue culture flasks (Falcon® #35-5001) and maintained in growth medium [EMEM (Cellgro #10-010-CV); 10% fetal bovine serum (FBS; Gibco #16000-044); and 50 I.U./ml of penicillin-streptomycin (Cellgro #30-001-CI)] at 37° C. and under 5% CO2.
Cells obtained from Rat-1 fibroblast cultures at 30-50% of confluence as described above were co-transfected with vectors containing the selection marker for resistance to zeocin for a stable transfection and a luciferase reporter gene controlled by the mPer-1 promoter. After 24 to 48 hours, the cultures were divided on 96-well plates and maintained in growth medium supplemented with 50-100 μg/ml of zeocin (Invitrogen® #45-0430) for 10-14 days. The zeocin-resistant stable transfectants were evaluated for the expression of the reporter by adding 100 μM lucerfin (Promega® #E1603®) to the growth medium and by assaying the luciferase activity on a TopCount® scintillation counter (Packard Model #C384V00). The Rat-1 cell clones expressing both zeocin resistance and lucerifase activity controlled by mPer1 were serum-shock synchronized with 50% horse serum [HS (Gibco® #16050-122)] and the activity of the circadian reporter was evaluated. The P2C4 clone of Mper1-luc Rat-1 fibroblasts was selected to test the compound.
Mper1-luc Rat-1 (P2C4) fibroblasts at 40-50% of confluence, obtained according to the protocol described above, were plated out onto 96-well opaque tissue culture plates (Perkin Elmer® #6005680). The cultures are maintained in growth medium supplemented with 100 μg/ml of zeocin (Invitrogen #45-0430) until they reach 100% of confluence (48-72 h). The cultures were then synchronized with 100 μl of synchronization medium [EMEM (Cellgro #10-010-CV); 100 I.U./ml of penicillin-streptomycin (Cellgro #30-001-C1); 50% HS (Gibco #16050-122)] for 2 hours at 37° C. and under 5% CO2. After synchronization, the cultures were rinsed with 100 μl of EMEM (Cellgro #10-010-CV) for 10 minutes at ambient temperature. […]
The period analysis was performed either by determining the interval between the relative light emission minima over several days or by Fourier transform. […] The data were analyzed by adjusting a hyperbolic curve to the data expressed as change of period (y-axis) as a function of the concentration of the test compound (x-axis) in the XLfit™ software and the CE Delta (t+1 h) was interpolated from this curve.

In the next series the target is T2, human CK1 delta (Homo sapiens, UniProt P48730).
T2 construct: purchased Invitrogen Corporation PV3665
T2 sequence (P48730 whole entry): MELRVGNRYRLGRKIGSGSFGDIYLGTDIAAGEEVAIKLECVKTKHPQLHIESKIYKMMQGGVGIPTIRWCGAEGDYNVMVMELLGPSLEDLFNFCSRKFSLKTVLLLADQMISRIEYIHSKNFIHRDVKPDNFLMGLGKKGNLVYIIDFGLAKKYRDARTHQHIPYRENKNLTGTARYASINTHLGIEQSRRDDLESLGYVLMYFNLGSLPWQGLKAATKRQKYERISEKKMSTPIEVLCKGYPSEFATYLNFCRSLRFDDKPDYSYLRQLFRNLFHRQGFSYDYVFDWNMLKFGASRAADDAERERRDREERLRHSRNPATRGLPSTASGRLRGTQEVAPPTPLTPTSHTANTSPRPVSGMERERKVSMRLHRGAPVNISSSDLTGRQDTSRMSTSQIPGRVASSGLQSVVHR
Put plainly: FRET fluorescence test (Z'Lyte kinase assay Kit), CK1 delta. The format is biochemical. Conditions: peptide substrate SER/THR 11 2 μM, ATP 4 times the KM. An excerpt:
The capacity of the compounds of the invention to inhibit the phosphorylation of casein by casein kinase 1 epsilon and delta may be evaluated using a FRET (“Fluorescence Resonance Energy Transfer) fluorescence test with the aid of the “Z′Lyte™ kinase assay Kit” (reference PV3670; Invitrogen Corporation™) according to the manufacturer's instructions.
The casein kinases 1 used are obtained from Invitrogen Corporation (human CK1 epsilon PV3500 and human CK1 delta PV3665).
A peptide substrate, labeled at both ends with a fluorophore donor group (coumarin) and a fluorophore acceptor group ([…]) constituting a FRET system is phosphorylated in the presence of ATP by casein kinase 1 epsilon or delta in the presence increasing concentrations of compounds of the invention. The mixture is treated with a site-specific protease that specifically cleaves the peptide substrate to form two fluorescent fragments having a large fluorescence emission ratio.
The fluorescence observed is thus related to the capacity of the products of the invention to inhibit the phosphorylation of the peptide substrate by casein kinase 1 epsilon or casein kinase 1 delta.
The compounds of the invention are dissolved at different concentrations starting with a 10 mM stock solution in DMSO diluted in a buffer containing 50 mM HEPS, pH 7.5, 1 m MEGTA, 0.01% Brij-35, 10 mM MgCl for casein kinase 1 epsilon and supplemented with Trizma Base (50 mM), pH 8.0, and NaN3 (0.01% final) for casein kinase 1 delta.
The phosphorylation of the peptide substrate SER/THR 11 obtained from Invitrogen Corporation™ is performed at a final concentration of 2 μM. The ATP concentration is 4 times the KM, this value being 2 μM for casein kinase 1 epsilon and 4 μM for casein kinase 1 delta.
The emitted fluorescence is measured at wavelengths of 445 and 520 nm (excitation at 400 nm).

Molecules are shown by their SMILES. pIC50: −log10 of the molar value.

T1 sequence (P49674 whole entry): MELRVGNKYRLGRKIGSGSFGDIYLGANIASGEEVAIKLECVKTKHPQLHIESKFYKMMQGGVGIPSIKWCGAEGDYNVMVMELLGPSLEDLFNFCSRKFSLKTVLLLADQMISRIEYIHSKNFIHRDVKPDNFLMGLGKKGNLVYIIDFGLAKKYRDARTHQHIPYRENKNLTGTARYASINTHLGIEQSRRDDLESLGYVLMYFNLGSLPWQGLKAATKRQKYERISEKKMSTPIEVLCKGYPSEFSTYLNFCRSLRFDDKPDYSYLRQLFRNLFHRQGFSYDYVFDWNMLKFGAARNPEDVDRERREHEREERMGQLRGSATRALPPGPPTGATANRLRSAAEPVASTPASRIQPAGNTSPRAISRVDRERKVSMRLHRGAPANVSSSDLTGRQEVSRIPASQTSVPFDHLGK

As to `OCC1CN(c2ccc3nc(-c4ccc(F)cc4)c(-c4ccnnc4)n3n2)CCN1` (racemic) [compound 39, (+/−)-{4-[2-(4-fluorophenyl)-3-pyridazin-4-ylimidazo[1,2-b]pyridazin-6-yl]piperazin-2-yl}methanol], the melting point was 205 to 212 °C. This compound had a pIC50 in series [1] of 7.01. In series [2], the “CE Delta (t + 1 h)” value is recorded as 178 nM.

The compound `Fc1ccc(-c2nc3ccc(N4CCNCC4)nn3c2-c2ccnnc2)cc1` [Compound No. 1, 2-(4-fluorophenyl)-6-(piperazin-1-yl)-3-(pyridazin-4-yl)imidazo[1,2-b]pyridazine] showed a pIC50 against human CK1 delta of 9.00.

For the compound `C[C@@H]1CN(c2ccc3nc(-c4ccc(F)cc4)c(-c4ccnnc4)n3n2)CCN1` [Compound No. 2, 2-(4-fluorophenyl)-6-((R)-3-methylpiperazin-1-yl)-3-(pyridazin-4-yl)imidazo[1,2-b]pyridazine], in series [2], the “CE Delta (t + 1 h)” value came to 164 nM.

Take `CC(C)N1CCN(c2ccc3nc(-c4ccc(F)cc4)c(-c4ccnnc4)n3n2)CC1` [Compound No. 11, 2-(4-fluorophenyl)-6-(4-isopropyl-piperazin-1-yl)-3-(pyridazin-4-yl)imidazo[1,2-b]pyridazine]: the pIC50 against human CK1 delta was 7.19 to 7.30.

As for `CC(C)N1CCN(c2ccc3nc(-c4ccc(F)c(F)c4)c(-c4ccnnc4)n3n2)CC1` [compound 14, 2-(3,4-difluorophenyl)-6-(4-isopropylpiperazin-1-yl)-3-pyridazin-4-yl-imidazo[1,2-b]pyridazine], the melting point lay within 192 to 194 °C. Moreover, in series [2], the “CE Delta (t + 1 h)” value is 62 nM.
